Laboratory results reported in ChEMBL document CHEMBL3045547, “Synthesis, characterization and antimicrobial screening of hybrid molecules containing benzimidazole-pyrazole and pyridine nucleus” (2012).
In brackets after ≈: the same amount, converted by molar mass.

Assays:
Assay type in all cases: functional
Aspergillus niger = test: Antimicrobial activity against Aspergillus niger MTCC 282 serial after 72 hr by broth dilution method; settings: MTCC 282, 72 h
Aspergillus clavatus = test: Antimicrobial activity against Aspergillus clavatus MTCC 1323 after 72 hr by serial broth dilution method; settings: MTCC 1323, 72 h
Escherichia coli = test: Antimicrobial activity against Escherichia coli MTCC 443 after 24 to 48 hr by serial broth dilution method
Pseudomonas aeruginosa = test: Antimicrobial activity against Pseudomonas aeruginosa MTCC 1688 after 24 to 48 hr by serial broth dilution method
Staphylococcus aureus = test: Antimicrobial activity against Staphylococcus aureus MTCC 96 after 24 to 48 hr by serial broth dilution method
Streptococcus pyogenes = test: Antimicrobial activity against Streptococcus pyogenes MTCC 442 after 24 to 48 hr by serial broth dilution method
Candida albicans = test: Antimicrobial activity against Candida albicans MTCC 227 after 72 hr by serial broth dilution method; settings: MTCC 227, 72 h

| Compound | MIC (Aspergillus niger) | MIC (Aspergillus clavatus) | MIC (Escherichia coli) | MIC (Pseudomonas aeruginosa) | MIC (Staphylococcus aureus) | MIC (Streptococcus pyogenes) | MIC (Candida albicans) |
| --- | --- | --- | --- | --- | --- | --- | --- |
| O=C(c1ccncc1)N1N=C(c2nc3ccccc3[nH]2)CC1c1ccccc1O (stereo not given) | 1000 µg/mL (≈ 2610 µM) | 100 µg/mL (≈ 261 µM) | 500 µg/mL (≈ 1300 µM) | 100 µg/mL (≈ 261 µM) | 125 µg/mL (≈ 326 µM) | 100 µg/mL (≈ 261 µM) | 100 µg/mL (≈ 261 µM) |
| O=C(c1ccncc1)N1N=C(c2nc3ccccc3[nH]2)CC1c1cccc([N+](=O)[O-])c1 (stereo not given) | 200 µg/mL (≈ 485 µM) | 100 µg/mL (≈ 242 µM) | 100 µg/mL (≈ 242 µM) | 100 µg/mL (≈ 242 µM) | 500 µg/mL (≈ 1210 µM) | 500 µg/mL (≈ 1210 µM) | 500 µg/mL (≈ 1210 µM) |
| O=C(c1ccncc1)N1N=C(c2nc3ccccc3[nH]2)CC1c1ccc([N+](=O)[O-])cc1 (stereo not given) | 200 µg/mL (≈ 485 µM) | 100 µg/mL (≈ 242 µM) | 50 µg/mL (≈ 121 µM) | 500 µg/mL (≈ 1210 µM) | 500 µg/mL (≈ 1210 µM) | 500 µg/mL (≈ 1210 µM) | 500 µg/mL (≈ 1210 µM) |
| CC1(C)S[C@@H]2[C@H](NC(=O)[C@H](N)c3ccccc3)C(=O)N2[C@H]1C(=O)O [AMPICILLIN] | – | – | 100 µg/mL (≈ 286 µM) | 100 µg/mL (≈ 286 µM) | 250 µg/mL (≈ 715 µM) | 100 µg/mL (≈ 286 µM) | – |
| COC1=CC(=O)C[C@@H](C)[C@]12Oc1c(Cl)c(OC)cc(OC)c1C2=O [GRISEOFULVIN] | 100 µg/mL (≈ 283 µM) | 100 µg/mL (≈ 283 µM) | – | – | – | – | 500 µg/mL (≈ 1420 µM) |
| O=C(c1ccncc1)N1N=C(c2nc3ccccc3[nH]2)CC1c1ccccc1 (stereo not given) | 200 µg/mL (≈ 544 µM) | 500 µg/mL (≈ 1360 µM) | 250 µg/mL (≈ 680 µM) | 500 µg/mL (≈ 1360 µM) | 250 µg/mL (≈ 680 µM) | 100 µg/mL (≈ 272 µM) | 250 µg/mL (≈ 680 µM) |
| CN(C)c1ccc(C2CC(c3nc4ccccc4[nH]3)=NN2C(=O)c2ccncc2)cc1 (stereo not given) | 25 µg/mL (≈ 60.9 µM) | 100 µg/mL (≈ 244 µM) | 250 µg/mL (≈ 609 µM) | 100 µg/mL (≈ 244 µM) | 250 µg/mL (≈ 609 µM) | 250 µg/mL (≈ 609 µM) | 1000 µg/mL (≈ 2440 µM) |
| O=C(c1ccncc1)N1N=C(c2nc3ccccc3[nH]2)CC1c1ccc(O)cc1 (stereo not given) | 1000 µg/mL (≈ 2610 µM) | 1000 µg/mL (≈ 2610 µM) | 25 µg/mL (≈ 65.2 µM) | 250 µg/mL (≈ 652 µM) | 250 µg/mL (≈ 652 µM) | 250 µg/mL (≈ 652 µM) | 100 µg/mL (≈ 261 µM) |
| O=C(c1ccncc1)N1N=C(c2nc3ccccc3[nH]2)CC1c1cccc(O)c1 (stereo not given) | 100 µg/mL (≈ 261 µM) | 500 µg/mL (≈ 1300 µM) | 100 µg/mL (≈ 261 µM) | 25 µg/mL (≈ 65.2 µM) | 100 µg/mL (≈ 261 µM) | 50 µg/mL (≈ 130 µM) | 500 µg/mL (≈ 1300 µM) |
| Cc1ccc(C2CC(c3nc4ccccc4[nH]3)=NN2C(=O)c2ccncc2)cc1 (stereo not given) | 1000 µg/mL (≈ 2620 µM) | 1000 µg/mL (≈ 2620 µM) | 25 µg/mL (≈ 65.5 µM) | 50 µg/mL (≈ 131 µM) | 100 µg/mL (≈ 262 µM) | 250 µg/mL (≈ 655 µM) | 1000 µg/mL (≈ 2620 µM) |
| O=C(c1ccncc1)N1N=C(c2nc3ccccc3[nH]2)CC1c1ccc(F)cc1 (stereo not given) | 200 µg/mL (≈ 519 µM) | 500 µg/mL (≈ 1300 µM) | 500 µg/mL (≈ 1300 µM) | 100 µg/mL (≈ 259 µM) | 500 µg/mL (≈ 1300 µM) | 100 µg/mL (≈ 259 µM) | 500 µg/mL (≈ 1300 µM) |
| O=C(c1ccncc1)N1N=C(c2nc3ccccc3[nH]2)CC1c1ccc(Cl)cc1 (stereo not given) | 1000 µg/mL (≈ 2490 µM) | 1000 µg/mL (≈ 2490 µM) | 500 µg/mL (≈ 1240 µM) | 500 µg/mL (≈ 1240 µM) | 250 µg/mL (≈ 622 µM) | 250 µg/mL (≈ 622 µM) | 1000 µg/mL (≈ 2490 µM) |
| COc1cc(C2CC(c3nc4ccccc4[nH]3)=NN2C(=O)c2ccncc2)ccc1O (stereo not given) | 100 µg/mL (≈ 242 µM) | 200 µg/mL (≈ 484 µM) | 250 µg/mL (≈ 605 µM) | 500 µg/mL (≈ 1210 µM) | 100 µg/mL (≈ 242 µM) | 100 µg/mL (≈ 242 µM) | 500 µg/mL (≈ 1210 µM) |
| O=C(c1ccncc1)N1N=C(c2nc3ccccc3[nH]2)CC1c1ccccc1Cl (stereo not given) | 1000 µg/mL (≈ 2490 µM) | 1000 µg/mL (≈ 2490 µM) | 100 µg/mL (≈ 249 µM) | 500 µg/mL (≈ 1240 µM) | 250 µg/mL (≈ 622 µM) | 500 µg/mL (≈ 1240 µM) | 500 µg/mL (≈ 1240 µM) |
| O=C(c1ccncc1)N1N=C(c2nc3ccccc3[nH]2)CC1c1ccc(Br)cc1 (stereo not given) | 1000 µg/mL (≈ 2240 µM) | 1000 µg/mL (≈ 2240 µM) | 250 µg/mL (≈ 560 µM) | 250 µg/mL (≈ 560 µM) | 250 µg/mL (≈ 560 µM) | 250 µg/mL (≈ 560 µM) | 1000 µg/mL (≈ 2240 µM) |
| COc1ccc(C2CC(c3nc4ccccc4[nH]3)=NN2C(=O)c2ccncc2)cc1 (stereo not given) | 200 µg/mL (≈ 503 µM) | 500 µg/mL (≈ 1260 µM) | 100 µg/mL (≈ 252 µM) | 50 µg/mL (≈ 126 µM) | 125 µg/mL (≈ 315 µM) | 200 µg/mL (≈ 503 µM) | 500 µg/mL (≈ 1260 µM) |
